The results in this text go back to the supplement of paper PMC11208160.
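Also: IS621 recombinase and bridge RNA in Escherichia coli cells.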

A short description of the data set: recombinant barcode read abundance after kanamycin selection (control-corrected) (log10(CPM+1)); higher = more efficient recombination; sequences stand for … in AGTGCAGAGAAAATCGGCCAGTTTTCTCTGCCTGCAGTCCGCATGCCGT…AGATTTATGCAGCGGACTGCCTTTCTCCCAAAGTGATAAACCGGACAGTATCATGGACCGGTTTTCCCGGTAATCCGTATTTGCAAGGTTGGTTTCACT; site = the 11-nt target. Summed up: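 Two replicates per condition were plated: chloramphenicol/ampicillin LB agar for the control, and chloramphenicol/ampicillin/kanamycin with 0.1 mM IPTG for selection. The pooled E. coli screen behind them paired targets with IS621 bridge RNA target-binding loops. Recombination efficiency is expressed from averaged, control-corrected barcode counts per million at recombinant junctions, as log10(CPM+1).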
Consider “CTCCCAACTTGGGTTCTAACCTGTTGCCT (site CTCCCAACTAG)”, for which the “recombinant barcode read abundance (log10)” value is 0.379.
In the case of “CTCCCAACTTGGGTTCTAACCTGTTGCCT (site TTCCCTACTAG)”, the “recombinant barcode read abundance (log10)” value is 0.446.
Regarding “CTCCCATCTTGGGTTCTAACCTGTTGCGT (site CTCCCATCTAC)”, the “recombinant barcode read abundance (log10)” value turned out to be 0.874.
For “CTCCCATCTTGGGTTCTAACCTGTTGCGT (site CTCCGATCTCC)”, the “recombinant barcode read abundance (log10)” value was 0.165.
As to “CTCCCTTCTTGGGTTCTAACCTGTTGCTT (site CTCCCTTCTAA)”, the “recombinant barcode read abundance (log10)” value was 0.534.
In the case of “CTCCCTTCTTGGGTTCTAACCTGTTGCTT (site CTTCCTTCTAG)”, the “recombinant barcode read abundance (log10)” value stood at 0.104.
Turning to “CTCCGAGCTTGGGTTCTAACCTGTTGCAC (site CTCCGAGCTGT)”, the “recombinant barcode read abundance (log10)” value was 0.201.
Regarding “CTCCGAGCTTGGGTTCTAACCTGTTGCAC (site GGAACGACTAC)”, the “recombinant barcode read abundance (log10)” value stood at 0.0202.
Take “CTCCGATCTTGGGTTCTAACCTGTTGCGG (site CTCCCATCTAC)”: the “recombinant barcode read abundance (log10)” value worked out at 0.
In the case of “CTCCGATCTTGGGTTCTAACCTGTTGCGG (site CTCCGATCTCC)”, the “recombinant barcode read abundance (log10)” value was 0.0434.
With “CTCCGCCCTTGGGTTCTAACCTGTTGCCT (site CTCCGCCCTAG)”, the “recombinant barcode read abundance (log10)” value was determined as 0.776.
Take “CTCCGCCCTTGGGTTCTAACCTGTTGCCT (site CTCCGTCCTAC)”: the “recombinant barcode read abundance (log10)” value is 0.0714.
For “CTCCGGGCTTGGGTTCTAACCTGTTGCAG (site CTCCGGGCTCT)”, the “recombinant barcode read abundance (log10)” value was determined as 1.81.
Regarding “CTCCGGGCTTGGGTTCTAACCTGTTGCAG (site TATACACCTAC)”, the “recombinant barcode read abundance (log10)” value came out at 0.0879.
The value for “CTCCGGTCTTGGGTTCTAACCTGTTGCTT (site CACGGGTCTAA)” was 0.22.
With “CTCCGGTCTTGGGTTCTAACCTGTTGCTT (site CTCCGGTCTAA)”, the “recombinant barcode read abundance (log10)” value worked out at 1.77.
For “CTCCGTACTTGGGTTCTAACCTGTTGCAT (site CTCCGAACTAA)”, the “recombinant barcode read abundance (log10)” value came to 0.0945.
In the case of “CTCCGTACTTGGGTTCTAACCTGTTGCAT (site CTCCGTACTAT)”, the “recombinant barcode read abundance (log10)” value was determined as 1.14.
On to “CTCCGTCCTTGGGTTCTAACCTGTTGCCG (site CTCCGTCCTCG)”, for which the “recombinant barcode read abundance (log10)” value was 1.25.
In the case of “CTCCGTCCTTGGGTTCTAACCTGTTGCCG (site GCCCGTCCTCG)” it was 0.272.
Turning to “CTCCGTCCTTGGGTTCTAACCTGTTGCCT (site CTCCGTCCTAG)”, the “recombinant barcode read abundance (log10)” value came out at 1.5.
As for “CTCCGTCCTTGGGTTCTAACCTGTTGCCT (site CTGCGTCCTAG)”, the “recombinant barcode read abundance (log10)” value is 0.252.
For the sequence “CTCCGTCCTTGGGTTCTAACCTGTTGCTT (site CTCCGACCTAA)”, the “recombinant barcode read abundance (log10)” value was 0.106.
For “CTCCGTCCTTGGGTTCTAACCTGTTGCTT (site CTCCGCCCTAA)”, the “recombinant barcode read abundance (log10)” value came to 0.111.
For the sequence “CTCCGTCCTTGGGTTCTAACCTGTTGCTT (site CTCCGGCCTAA)”, the “recombinant barcode read abundance (log10)” value came to 0.589.
Take “CTCCGTCCTTGGGTTCTAACCTGTTGCTT (site CTCCGTCCTAA)”: the “recombinant barcode read abundance (log10)” value is 0.445.
“CTCCTATCTTGGGTTCTAACCTGTTGCCT (site CTCCAATCTAG)”: the “recombinant barcode read abundance (log10)” value is 0.238.
Regarding “CTCCTATCTTGGGTTCTAACCTGTTGCCT (site CTCCTATCTAG)”, the “recombinant barcode read abundance (log10)” value was 0.848.
As to “CTCGAATCTTGGGTTCTAACCTGTTGCTA (site CTCGAACCTCA)”, the “recombinant barcode read abundance (log10)” value amounted to 0.175.
As for “CTCGAATCTTGGGTTCTAACCTGTTGCTA (site CTCGAATCTTA)”, the “recombinant barcode read abundance (log10)” value came to 1.17.
For “CTCGACCCTTGGGTTCTAACCTGTTGCCT (site CTCGACCCTAG)”, the “recombinant barcode read abundance (log10)” value came to 1.7.
For “CTCGACCCTTGGGTTCTAACCTGTTGCCT (site CTGGATCCTAG)”, the “recombinant barcode read abundance (log10)” value was 0.0491.
For “CTCGATACTTGGGTTCTAACCTGTTGCTT (site CTCGATACTAA)”, the “recombinant barcode read abundance (log10)” value amounted to 0.684.
Turning to “CTCGATACTTGGGTTCTAACCTGTTGCTT (site CTCGCTACTAA)”, the “recombinant barcode read abundance (log10)” value came to 0.096.
For the sequence “CTCGCCACTTGGGTTCTAACCTGTTGCCT (site CTCGCCACTAG)”, the “recombinant barcode read abundance (log10)” value is 0.186.
Consider “CTCGCCACTTGGGTTCTAACCTGTTGCCT (site GAGTTGTCTCC)”, for which the “recombinant barcode read abundance (log10)” value came out at 0.0691.
In the case of “CTCGGAGCTTGGGTTCTAACCTGTTGCCG (site CTCGGAGCTCG)”, the “recombinant barcode read abundance (log10)” value stood at 0.596.
For the sequence “CTCGGAGCTTGGGTTCTAACCTGTTGCCG (site CTCGGATCTTG)”, the “recombinant barcode read abundance (log10)” value was determined as 0.47.
Regarding “CTCGGATCTTGGGTTCTAACCTGTTGCCA (site CTCGGAGCTCG)”, the “recombinant barcode read abundance (log10)” value is 0.167.
The value for “CTCGGATCTTGGGTTCTAACCTGTTGCCA (site CTCGGATCTTG)” was 0.0484; that for “CTCGGTACTTGGGTTCTAACCTGTTGCCA (site CTCGGTACTTG)” was 0.489.
For “CTCGGTACTTGGGTTCTAACCTGTTGCCA (site CTCGGTTCTAG)”, the “recombinant barcode read abundance (log10)” value was 0.0612.
As to “CTCGGTGCTTGGGTTCTAACCTGTTGCCT (site CACGGTCCTAG)”, the “recombinant barcode read abundance (log10)” value turned out to be 0.118.
Consider “CTCGGTGCTTGGGTTCTAACCTGTTGCCT (site CTCGGTGCTAG)”, for which the “recombinant barcode read abundance (log10)” value amounted to 1.15.
Consider “CTCGTGTCTTGGGTTCTAACCTGTTGCAG (site CTCGTGTCTCT)”, for which the “recombinant barcode read abundance (log10)” value came out at 1.95.
In the case of “CTCGTGTCTTGGGTTCTAACCTGTTGCAG (site CTCTTGTCTCA)”, the “recombinant barcode read abundance (log10)” value was 0.0182.
The value for “CTCGTGTCTTGGGTTCTAACCTGTTGCAT (site AGAACTACTTG)” was 0.00883; that for “CTCGTGTCTTGGGTTCTAACCTGTTGCAT (site CTCGTGTCTAT)” was 2.88; that for “CTCTACACTTGGGTTCTAACCTGTTGCCA (site CTCTAAACTTG)” was 0.0347.
As for “CTCTACACTTGGGTTCTAACCTGTTGCCA (site CTCTACACTTG)”, the “recombinant barcode read abundance (log10)” value stood at 0.879.
Regarding “CTCTACACTTGGGTTCTAACCTGTTGCCA (site CTCTAGACTTG)”, the “recombinant barcode read abundance (log10)” value was 0.161.
“CTCTACACTTGGGTTCTAACCTGTTGCCA (site CTCTATACTTG)”: the “recombinant barcode read abundance (log10)” value is 0.0697.
With “CTCTACCCTTGGGTTCTAACCTGTTGCAG (site AGAGCGACTTA)”, the “recombinant barcode read abundance (log10)” value was 0.0772.
Regarding “CTCTACCCTTGGGTTCTAACCTGTTGCAG (site CTCTACCCTCT)”, the “recombinant barcode read abundance (log10)” value amounted to 1.9.
On to “CTCTACTCTTGGGTTCTAACCTGTTGCGT (site CTCTACTCTAC)”, for which the “recombinant barcode read abundance (log10)” value came out at 0.529.
In the case of “CTCTACTCTTGGGTTCTAACCTGTTGCGT (site TGACCTACTTG)” it was 0.0348; in that of “CTCTAGACTTGGGTTCTAACCTGTTGCCA (site CTCTAAACTTG)”, 0.193.
Regarding “CTCTAGACTTGGGTTCTAACCTGTTGCCA (site CTCTACACTTG)”, the “recombinant barcode read abundance (log10)” value turned out to be 0.0305.
In the case of “CTCTAGACTTGGGTTCTAACCTGTTGCCA (site CTCTAGACTTG)”, the “recombinant barcode read abundance (log10)” value turned out to be 0.69.
The value for “CTCTAGACTTGGGTTCTAACCTGTTGCCA (site CTCTATACTTG)” was 0.0325.
With “CTCTAGCCTTGGGTTCTAACCTGTTGCGT (site CTCTAACCTAC)”, the “recombinant barcode read abundance (log10)” value is 1.38.
The value for “CTCTAGCCTTGGGTTCTAACCTGTTGCGT (site CTCTACCCTAC)” was 0.178.
As for “CTCTAGCCTTGGGTTCTAACCTGTTGCGT (site CTCTAGCCTAC)”, the “recombinant barcode read abundance (log10)” value was determined as 1.25.
Turning to “CTCTAGCCTTGGGTTCTAACCTGTTGCGT (site CTCTATCCTAC)”, the “recombinant barcode read abundance (log10)” value stood at 0.0754.
Take “CTCTAGTCTTGGGTTCTAACCTGTTGCCT (site CTCTAGTCTAA)”: the “recombinant barcode read abundance (log10)” value came to 0.0156.
Regarding “CTCTAGTCTTGGGTTCTAACCTGTTGCCT (site CTCTAGTCTAC)”, the “recombinant barcode read abundance (log10)” value is 0.792.
For the sequence “CTCTAGTCTTGGGTTCTAACCTGTTGCCT (site CTCTAGTCTAG)”, the “recombinant barcode read abundance (log10)” value was determined as 0.154.
As for “CTCTAGTCTTGGGTTCTAACCTGTTGCCT (site CTCTAGTCTAT)”, the “recombinant barcode read abundance (log10)” value is 0.526.
On to “CTCTATACTTGGGTTCTAACCTGTTGCCA (site CTCTAAACTTG)”, for which the “recombinant barcode read abundance (log10)” value amounted to 0.0863.
“CTCTATACTTGGGTTCTAACCTGTTGCCA (site CTCTACACTTG)”: the “recombinant barcode read abundance (log10)” value is 0.102.
On to “CTCTATACTTGGGTTCTAACCTGTTGCCA (site CTCTAGACTTG)”, for which the “recombinant barcode read abundance (log10)” value came out at 0.511.
In the case of “CTCTATACTTGGGTTCTAACCTGTTGCCA (site CTCTATACTTG)”, the “recombinant barcode read abundance (log10)” value stood at 0.0112.
Regarding “CTCTATCCTTGGGTTCTAACCTGTTGCGT (site CTCTAACCTAC)”, the “recombinant barcode read abundance (log10)” value turned out to be 0.526.
For “CTCTATCCTTGGGTTCTAACCTGTTGCGT (site CTCTACCCTAC)”, the “recombinant barcode read abundance (log10)” value was 0.218.
The value for “CTCTATCCTTGGGTTCTAACCTGTTGCGT (site CTCTAGCCTAC)” was 0.376; that for “CTCTATCCTTGGGTTCTAACCTGTTGCGT (site CTCTATCCTAC)” was 0.551; that for “CTCTCGTCTTGGGTTCTAACCTGTTGCGT (site CTCTCGTCTAA)” was 0.0993.
